In patent US9926298B2, “Heterocyclic compounds and use thereof” (National Health Research Institutes, priority 2014, dated 2018):

Experiments:
Limb Ischemia in Mice = test: Limb ischemia in mice; type: in vivo, ICR mice; conditions: 6 mg/kg/d subcutaneous, twice a week, laser Doppler perfusion, seven weeks
Method: Unilateral hindlimb ischemia was induced in ICR mice by ligating and excising the right femoral artery. Briefly, animals were anesthetized by an intraperitoneal injection of Xylocaine (2 mg/kg of body weight) plus Zoletil (i.e., the dissociative anesthetic Tiletamine/Zolazepam at a ratio of 1:1; 5 mg/kg of body weight). The proximal and distal portions of the femoral artery were ligated with a silk thread, and a 0.2 centimeter section of the blood vessel was removed. Hindlimb blood perfusion was measured with a laser Doppler perfusion imager system (Moor Instruments Limited, Devon, UK) before and after the surgery and was then followed on a weekly basis. Animals were subcutaneously treated with compound 4 (6 mg/kg/d, twice a week) in saline after surgery. The animals were sacrificed by cervical dislocation without sedation at the end of the seven experimental weeks. To avoid the influence of ambient light and temperature, the results are expressed as the ratio of perfusion in the right (ischemic) versus left (non-ischemic) limb.

Ischemic Stroke in Rats = test: Ischemic stroke in rats (MCAo); type: in vivo, male Sprague-Dawley rats; conditions: 1 mg/kg/d i.p. for 5 days; for horizontal movement number compared with vehicle-treated animals / vertical movement number: day 2 after MCAo; for volume of infarction as compared to vehicle (TTC staining): day 5 after MCAo
Method: Adult male Sprague-Dawley rats (250-300 g) were anesthetized with chloral hydrate (400 mg/kg i.p.). The right middle cerebral artery was occluded (MCAo) and bilateral common carotids (CCAs) were clamped for 60 minutes to generate focal ischemia in the right cerebral cortex. Core body temperature was maintained at 37° C.
Compounds 62 and 63 and a vehicle were administered to the rats at a dose of 1 mg/kg/d (i.p.) for 5 consecutive days. The first dose was given at 90 minutes after MCAo. Each animal was placed in a 42×42×31 cm activity monitor for 1 h on day 2 after MCAo. The monitor contained 16 horizontal and 8 vertical infrared sensors spaced 2.5 cm apart. Locomotor activity was calculated using the number of infrared beams broken by the animals.
TTC staining was performed on day 5 after MCAo to determine infarction size as described previously in Brain Research, volume 1116, issue 1, 2006, pages 159-165. Briefly, rats were decapitated and the brains were removed and sliced into 2.0-mm-thick sections. The brain slices were incubated in a 2% TTC solution (Sigma-Aldrich) for 15 minutes at room temperature and then transferred into a 4% paraformaldehyde solution for fixation. The area of infarction in each slice was measured with a digital scanner and Imagetools programs (University of Texas Health Sciences Center). The volume of infarction in each animal was obtained from the product of average slice thickness (2 mm) and sum of infarction areas in all brain slices examined.

Row | SMILES | improvement of blood flow in the ischemic hindlimb as compared with the vehicle control (Limb Ischemia in Mice) | horizontal movement number compared with vehicle-treated animals (Ischemic Stroke in Rats) | vertical movement number (Ischemic Stroke in Rats) | volume of infarction as compared to vehicle (TTC staining) (Ischemic Stroke in Rats)
1 | c1ccc2c(NC3CCNCC3)nc(NCc3cn(CCCNCCCNC4CCCCC4)nn3)nc2c1 [Compound 4] | 20-25% | – | – | –
2 | N[C@@H](CCC(=O)N1CCC(Nc2nc(NCc3cn(CCCNCCCNC4CCCCC4)nn3)nc3ccccc23)CC1)C(=O)OCc1ccccc1 [Compound 62] | – | significant increase | significantly increased | significantly reduced
3 | N[C@@H](CCC(=O)N1CCC(Nc2nc(NCc3cn(CCCNCCCNC4CCCCC4)nn3)nc3ccccc23)CC1)C(=O)O [Compound 63] | – | significant increase | significantly increased | significantly reduced
